Test results: patent US20260200943A1, “COMPOUNDS FOR TREATING CANCER” (Genesis Therapeutics, Inc., priority 2022, published 2026)
Where two headings read alike, the source gives them in different places. Each block holds one compound with its values, some of them ahead of it.

Tests used:
CDK1/CyclinB1 = molecular target: T1, CDK1/CyclinB1 (Homo sapiens, UniProt P06493); assay: CDK1/CyclinB1 ChEF Assay (AQT, Table C); assay type: biochemical; conditions: 10xKm, read-out: CDK1/CCNB1 AQT AQT10xKm Ki: Average Ki
T1 construct: Wild-type, full length CDK1 in complex with wildtype, full length CyclinB1: Carna Cat #04-102; purchased Carna 04-102
T1 sequence (P06493 whole entry): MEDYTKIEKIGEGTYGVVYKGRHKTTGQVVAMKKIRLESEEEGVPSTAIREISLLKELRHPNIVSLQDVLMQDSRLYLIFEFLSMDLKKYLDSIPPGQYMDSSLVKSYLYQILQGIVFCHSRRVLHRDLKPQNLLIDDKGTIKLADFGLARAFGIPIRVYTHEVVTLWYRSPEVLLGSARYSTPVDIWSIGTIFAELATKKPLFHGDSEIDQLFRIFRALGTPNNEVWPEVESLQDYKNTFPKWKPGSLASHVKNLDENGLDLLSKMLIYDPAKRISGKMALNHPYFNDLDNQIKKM
T1 sequence (P14635 whole entry partner): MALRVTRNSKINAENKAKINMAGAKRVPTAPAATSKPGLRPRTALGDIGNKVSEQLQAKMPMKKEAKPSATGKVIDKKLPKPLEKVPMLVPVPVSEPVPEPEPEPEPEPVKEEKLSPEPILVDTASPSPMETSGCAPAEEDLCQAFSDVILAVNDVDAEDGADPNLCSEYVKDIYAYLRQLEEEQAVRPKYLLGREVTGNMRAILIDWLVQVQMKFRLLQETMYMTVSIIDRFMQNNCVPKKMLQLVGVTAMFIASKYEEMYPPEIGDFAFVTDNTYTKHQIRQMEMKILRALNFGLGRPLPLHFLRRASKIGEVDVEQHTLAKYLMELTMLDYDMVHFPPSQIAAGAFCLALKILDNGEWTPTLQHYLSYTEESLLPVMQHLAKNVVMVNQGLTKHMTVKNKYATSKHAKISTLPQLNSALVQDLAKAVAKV
Experimental: (§1) 16 nL of 1000× compound in 100% DMSO is added to a 384-well low volume, black assay plate. 12 μL of 1.3×CDK1/CyclinB1 (Wild-type, full length CDK1 in complex with wildtype, full length CyclinB1: Carna Cat #04-102) diluted in assay buffer (54 mM Hepes, 0.012% Brij-35, 10 mM MgCl2, 0.55 mM EGTA, 1% Glycerol, 0.02% BSA, and 1.2 mM DTT) is added to the plates on top of the compound and pre-incubated for 30 minutes at room temperature. Following the incubation, 4 uL of 4×Sox-chromophore (CSox) labeled peptide substrate (AQT0297, AssayQuant) & ATP diluted in assay buffer is added to the plate to initiate the reaction. The assay is incubated at room temperature for 120 min after initiation. The CSox peptide substrate is phosphorylated by CDK1/B1 upon ATP hydrolysis.
(§2) The fluorescent intensity measurement of the assay plate is read on a microplate reader once the assay is initiated and again at the completion of the assay. Phosphorylation of the CSox-based peptide substrate sensor results in an immediate increase in fluorescence. These raw fluorescence intensity values are normalized to calculate percent inhibition, which are fit to a four-parameter logistic curve and IC50 values are calculated. IC50 values are converted to Ki using substrate, KM^app values, and the Cheng-Prusoff equation.

CDK2/CyclinA2 = molecular target: T2, CDK2/CyclinA2 (Homo sapiens, UniProt P24941); assay: CDK2/CyclinA2 ChEF Assay (AQT, Table C); assay type: biochemical; conditions: 10xKm; for Ki: AQT ChEF, read-out: CDK2/CCNA2 AQT10xKm Ki: Average Ki; for CDK2/CCNA2 AQT10xKm Ki: CDK2/A2 Selectivity over CDK1/B1 / CDK2/CCNA2 AQT10xKm Ki: CDK2/A2 Selectivity over CDK9: AQT
T2 construct: Wild-type, full length CDK2 in complex with wildtype, full length CyclinA2: Carna Cat #04-103; purchased Carna 04-103
Experimental: as §1, with “1.3×CDK2/CyclinA2” for “1.3×CDK1/CyclinB1”, “CDK2” for “CDK1”, “CyclinA2:” for “CyclinB1:”, “#04-103” for “#04-102)”, “90” for “120”, “CDK2/A2” for “CDK1/B1”
as §2

CDK9/CyclinT1 [1] = molecular target: T3, CDK9/CyclinT1 (Homo sapiens, UniProt P50750); assay: CDK9/CyclinT1 Mobility Shift Assay (Caliper, Table B); assay type: biochemical; design: Wild-type, full length CDK9 in complex with wildtype, CyclinT1 (1-259): Biortus Cat #BP480/792/691; purchased Biortus BP480/792/691; conditions: read-out: CDK9/Cyclin T1 Caliper Ki: Average Ki
T3 sequence (P50750 whole entry): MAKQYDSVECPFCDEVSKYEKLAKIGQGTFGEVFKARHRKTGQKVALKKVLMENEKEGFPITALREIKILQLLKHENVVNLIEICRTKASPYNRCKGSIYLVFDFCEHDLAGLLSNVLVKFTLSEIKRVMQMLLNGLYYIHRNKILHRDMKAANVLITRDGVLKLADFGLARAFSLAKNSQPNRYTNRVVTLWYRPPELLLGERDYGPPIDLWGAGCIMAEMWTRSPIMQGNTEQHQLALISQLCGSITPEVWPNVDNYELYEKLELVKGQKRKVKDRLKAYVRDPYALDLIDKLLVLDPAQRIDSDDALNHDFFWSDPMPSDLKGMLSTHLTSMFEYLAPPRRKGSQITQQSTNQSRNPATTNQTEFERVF
T3 sequence (O60563 1-259 partner limits assumed): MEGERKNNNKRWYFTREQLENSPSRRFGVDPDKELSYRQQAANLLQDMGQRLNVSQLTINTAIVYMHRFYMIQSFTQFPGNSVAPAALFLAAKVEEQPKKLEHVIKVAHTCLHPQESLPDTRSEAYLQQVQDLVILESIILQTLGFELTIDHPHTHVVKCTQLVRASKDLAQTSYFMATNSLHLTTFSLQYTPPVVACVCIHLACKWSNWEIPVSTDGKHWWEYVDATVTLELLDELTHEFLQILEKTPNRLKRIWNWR
Experimental: 10 nL of 2000× compound in 100% DMSO is added to a 384-well polypropylene assay plate. 15 μL of 1.3×CDK9/T1 and 1.3× fluorescent substrate (Wild-type, full length CDK9 in complex with wildtype, CyclinT1 (1-259): Biortus Cat #BP480/792/691 and FL-Peptide 34: PerkinElmer Cat #760643) diluted in kinase buffer (50 mM Hepes, 0.01% Brij-35, 10 mM MgCl2, 1 mM EGTA, 0.05% BSA, and 2 mM DTT) is added to the plates on top of the compound, mixed, and pre-incubated for 30 minutes at room temperature. The fluorescently labeled peptide substrate is phosphorylated by CDK9/T1 upon ATP hydrolysis. Following the incubation, 5 μL of 4×ATP diluted in kinase buffer is added to the plate to initiate the reaction. Following the 30-minute incubation, the reaction is stopped by adding 75 μL of stopping buffer containing 0.5 M EDTA.
The assay plate is then read on a Lab Chip EZ Reader which separates the fluorescently labeled substrate and product peptides through a mobility difference. The phosphorylation of the substrate imparts a negative charge, which allows differences in separation as both are pulled through the microfluidic chip. The ratio of substrate and product values are used to generate percent conversion. These raw percent conversion values are normalized to calculate percent inhibition, which are fit to a four-parameter logistic curve and IC50 values are calculated. IC50 values are converted to Ki using substrate, Kmapp values, and the Cheng-Prusoff equation.

CDK9/CyclinT1 [2] = molecular target: T3, CDK9/CyclinT1; assay: CDK9/CyclinT1 ChEF Assay (AQT, Table C); assay type: biochemical; design: Wild-type, full length CDK9 in complex with wildtype, CyclinT1 (1-259): Biortus Cat #BP480/792/691; purchased Biortus BP480/792/691; conditions: 10XKm
Experimental: 16 nL of 1000× compound in 100% DMSO is added to a 384-well low volume, black assay plate. 12 μL of 1.3×CDK9/CyclinT1 (Wild-type, full length CDK9 in complex with wildtype, CyclinT1 (1-259): Biortus Cat #BP480/792/691) diluted in assay buffer (54 mM Hepes, 0.012% Brij-35, 10 mM MgCl2, 0.55 mM EGTA, 1% Glycerol, 0.02% BSA, and 1.2 mM DTT) is added to the plates on top of the compound and pre-incubated for 30 minutes at room temperature. Following the incubation, 4 μL of 4×Sox-chromophore (CSox) labeled peptide substrate (AQT0449, AssayQuant) & ATP diluted in assay buffer is added to the plate to initiate the reaction. The assay is incubated at room temperature for 180 min after initiation. The CSox peptide substrate is phosphorylated by CDK9/T1 upon ATP hydrolysis.
as §2

[3] = other bond
[4] = from C=CCNC(=O)O[C@@H]1CC[C@H](c2cc(Nc3ccc(S(=O)(=O)NCC=C)cc3F)nn2C(C)(C)C)C1; rcm bond; Grubbs Cat. M204 (Grubbs II); DCE; 1.92 mM; 25.0 °C; 40.0 h
[5] = from C=CCNC(=O)O[C@@H]1CC[C@H](c2cc(Nc3ccc(S(=O)(=O)NCC=C)cc3F)nn2C(C)(C)C)C1; rcm bond; 20-membered ring; Grubbs Cat. M204; DCE; 1.92 mM; 25.0 °C

Ki (CDK1/CyclinB1): 1 to 25 nM
Ki (CDK2/CyclinA2): < 1 nM
CDK2/CCNA2 AQT10xKm Ki: CDK2/A2 Selectivity over CDK1/B1 (CDK2/CyclinA2): A (A>10)
CDK2/CCNA2 AQT10xKm Ki: CDK2/A2 Selectivity over CDK9 (CDK2/CyclinA2): A (A>10)
Ki (CDK9/CyclinT1 [1]): ≥ 100 nM
Ki (CDK9/CyclinT1 [2]): ≥ 100 nM
Compound: NS(=O)(=O)c1ccc2cc1OCCCCCNC(=O)O[C@H]1CC[C@H](C1)c1cnc(nc1)N2 (stereo in doubt) [Compound 104, rel-(2R,5S)-7-oxo-6,14-dioxa-8,20,22,25-tetraazatetracyclo[19.2.2.1^{2,5}.1^{15,19}]heptacosa-1(23),15,17,19(26),21,24-hexaene-16-sulfonamide]

Compound: (1^1S,1^3R,Z)-2^1H-15-oxa-5-thia-3,6,13-triaza-2(5,3)-pyrazola-4(1,4)-cyclohexana-1(1,3)-cyclopentanacyclopentadecaphan-14-one 5,5-dioxide
ring closure, isolated yield ([3]; 22-membered ring, TFA, then DIPEA, DCM/DCE, 4.26 mM, 25.0 °C, 2 steps): 50%

Compound: CC(C)(C)n1nc2cc1[C@H]1CC[C@H](C1)OC(=O)NCC=CCNS(=O)(=O)c1ccc(c(F)c1)N2
ring closure, yield of all isomers [4]: 29%
ring closure, yield after HPLC [5]: 29%

Compound: CC(C)(C)OC(=O)NCCCCCNc1cc(Nc2ncc(C3CCC(OC(=O)Oc4ccc([N+](=O)[O-])cc4)C3)cn2)ccc1S(=O)(=O)NC(=O)OC(C)(C)C (stereo not drawn)
ring closure, isolated yield ([3]; the molecule shown is the open-chain precursor, 20-membered ring, HCOOH, then DIEA, DMF, 76.7 mM, 50.0 °C, 2 steps): 39.5%

Compound: NCCCCCOc1cc(Nc2ncc(C3CCC(OC(=O)Oc4ccc([N+](=O)[O-])cc4)C3)cn2)ccc1S(N)(=O)=O (stereo not drawn)
ring closure, isolated yield ([3]; the molecule shown is the open-chain precursor, 20-membered ring, DIEA, DMF, 41.5 mM, 50.0 °C): 11.1%

Compound: CC(C)(C)OC(=O)NCCOCCNS(=O)(=O)c1ccc(Nc2cc([C@H]3CC[C@@H](OC(=O)Oc4ccc([N+](=O)[O-])cc4)C3)n(C(C)(C)C)n2)c(F)c1
ring closure, isolated yield ([3]; the molecule shown is the open-chain precursor, 21-membered ring, TFA, then DIPEA, DCE, 5.25 mM, 25.0 °C, 2 steps): 62.3%

Ki (CDK1/CyclinB1): 1 to 25 nM
Ki (CDK2/CyclinA2): < 1 nM
CDK2/CCNA2 AQT10xKm Ki: CDK2/A2 Selectivity over CDK1/B1 (CDK2/CyclinA2): A (A>10)
CDK2/CCNA2 AQT10xKm Ki: CDK2/A2 Selectivity over CDK9 (CDK2/CyclinA2): A (A>10)
Ki (CDK9/CyclinT1 [1]): ≥ 100 nM
Ki (CDK9/CyclinT1 [2]): 1 to 25 nM
Compound: NS(=O)(=O)c1ccc2cc1OCCCCCNC(=O)O[C@H]1CC[C@H](C1)c1cnc(nc1)N2 (stereo in doubt) [Compound 103, 12-oxo-5,13-dioxa-3,11-diaza-2(5,2)-pyrimidina-4(1,3)-benzena-1(1,3)-cyclopentanacyclotridecaphane-44-sulfonamide]
